Consider three molecules from ChEMBL document CHEMBL4130565, “Consequences of Depsipeptide Substitution on the ClpP Activation Activity of Antibacterial Acyldepsipeptides” (ACS Med Chem Lett, 2017).

Molecules are shown by their SMILES. “And” between values parts separate entries of the source, which are not always exact repeats. Equal entries are not always repeated. Where a SMILES comes first, the peptide text is derived from it. Bridges are numbered along the chain shown (N, C = ends). [ ]: non-standard residue; d: D form. The star is where a group is joined. Phe(3,5-F2) = N[C@@H](Cc1cc(F)cc(F)c1)C(=O)O; Heptenoyl(2E) = CCCC/C=C/C(=O)*; NMeA = CN[C@@H](C)C(=O)O; Dap = NC[C@H](N)C(=O)O

Broadly, the MIC is the least concentration at which growth counts as inhibited. Low readings indicate inhibition by little substance, high ones a need for much substance. The term half-life denotes the time in which the quantity being followed falls by half. One may read the ΔTm as the change in melting temperature against a reference sample.

The test system of one data set is Bacillus subtilis. As to the kind of experiment: Antibacterial activity against Bacillus subtilis ATCC 6051 after 16 hrs by microdilution method. Particulars: ATCC 6051, 16 h. The data set is classed as functional.
The nature of data set [1]: Half life in CD3OD assessed as hydrogen-deuterium exchange by 1H-NMR analysis. The class given is physicochemical.
Data set [2] addresses ATP-dependent Clp protease proteolytic subunit (Bacillus subtilis (strain 168)) (UniProt P80244). As to the kind of experiment: Stabilization of Bacillus subtilis ClpP assessed as change in melting temperature at 50 uM after 30 mins by SYPRO orange protein gel staining based FRET analysis.
The target is the same in data set [3]. As to the kind of experiment: Activation of Bacillus subtilis ClpP expressed in Escherichia coli BL21(DE3) using Abz-DFAPKMALVPYNO2 as substrate pretreated for 15 mins followed by substrate addition measured every 30 mins for 2 hrs by fluorescence assay.

Sequence of ATP-dependent Clp protease proteolytic subunit (Bacillus subtilis (strain 168)) (P80244 whole entry, looked up): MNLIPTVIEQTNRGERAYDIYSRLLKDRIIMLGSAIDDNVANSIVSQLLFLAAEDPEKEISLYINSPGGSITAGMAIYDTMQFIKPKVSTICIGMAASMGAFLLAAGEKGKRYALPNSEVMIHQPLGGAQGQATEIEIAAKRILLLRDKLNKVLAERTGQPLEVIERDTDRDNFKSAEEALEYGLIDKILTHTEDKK

`CCCC/C=C/C(=O)N[C@@H](Cc1cc(F)cc(F)c1)C(=O)N[C@H]1COC(=O)[C@@H]2CCCN2C(=O)[C@H](C)NC(=O)[C@H](C)N(C)C(=O)[C@@H]2CCCN2C1=O` ({Heptenoyl(2E)}-[Phe(3,5-F2)]SP[NMeA]AP; ester 2-C): the minimum inhibitory concentration (MIC) against Bacillus subtilis was 0.037 µM and 0.027 µg/mL. For the same molecule, the half-life in data set [1] amounted to 38 min. Further, the ΔTm in data set [2] was 29.1 °C. Besides, the Kapp in data set [3] turned out to be 0.037 µM.
Take `CCCC/C=C/C(=O)N[C@@H](Cc1cc(F)cc(F)c1)C(=O)N[C@H]1CN(C)C(=O)[C@@H]2CCCN2C(=O)[C@H](C)NC(=O)[C@H](C)N(C)C(=O)[C@@H]2CCCN2C1=O`: the minimal inhibitory concentration (MIC) against Bacillus subtilis was > 25 µM and > 18.6 µg/mL. Also, the half-life in data set [1] is below 4 min. Moreover, the ΔTm in data set [2] amounted to 12.7 °C. Moreover, in data set [3], the Kapp was 4.39 µM.
Consider `CCCC/C=C/C(=O)N[C@@H](Cc1cc(F)cc(F)c1)C(=O)N[C@H]1CNC(=O)[C@@H]2CCCN2C(=O)[C@H](C)NC(=O)[C@H](C)N(C)C(=O)[C@@H]2CCCN2C1=O` ({Heptenoyl(2E)}-[Phe(3,5-F2)][Dap]P[NMeA]AP; lactam 2-C), for which, in the data set with Bacillus subtilis, the minimum inhibitory concentration (MIC) was 6.25 µM and 4.6 µg/mL. The half-life in data set [1] is below 4 min. In addition, in data set [2], the shift in melting temperature (ΔTm) amounted to 22.8 °C. The Kapp in data set [3] came to 0.085 µM.
